In experiment [1] the target is Matrix metalloproteinase-9 (Homo sapiens, UniProt P14780). Description: biochemical. The experiment is classed as cell-based.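 Also: inhibition of isolated MMP-9 enzyme activity toward a synthetic peptide substrate, from the DrugMatrix protease screening panel; in other assays of this panel Not Active means under 50% inhibition at 10 µM.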
Experiment [2] concerns the target Mitogen-activated protein kinase 1 (Homo sapiens, UniProt P28482). Description: DRUGMATRIX: Protein Serine/Threonine Kinase, ERK2 enzyme inhibition (substrate: Myelin Basic Protein). Set-up: species or system Escherichia coli. As to conditions: Not Active = under 50% inhibition at 10 µM.
Experiment [3] concerns the target T1, Cholecystokinin receptor type A (Homo sapiens, UniProt P32238). Also: in other assays of this panel Not Active means under 50% inhibition at 10 µM.
T1 sequence (P32238 whole entry): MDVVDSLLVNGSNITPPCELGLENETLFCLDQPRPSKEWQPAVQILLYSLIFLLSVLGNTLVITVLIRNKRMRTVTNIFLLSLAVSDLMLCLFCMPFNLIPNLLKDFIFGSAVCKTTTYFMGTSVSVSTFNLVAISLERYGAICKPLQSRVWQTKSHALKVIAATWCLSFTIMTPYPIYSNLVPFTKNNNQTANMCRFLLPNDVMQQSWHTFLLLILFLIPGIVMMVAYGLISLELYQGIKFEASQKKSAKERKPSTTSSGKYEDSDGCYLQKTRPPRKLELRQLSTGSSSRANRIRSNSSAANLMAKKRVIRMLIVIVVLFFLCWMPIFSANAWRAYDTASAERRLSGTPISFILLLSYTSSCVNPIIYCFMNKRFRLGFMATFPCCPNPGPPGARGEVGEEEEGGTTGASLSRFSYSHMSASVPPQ
The experiment is classed as cell membranes, Membrane. Conditions: 1321-n1.

The target of experiment [4] is T2, Androgen receptor (Rattus norvegicus, UniProt P15207). Also: in other assays of this panel Not Active means under 50% inhibition at 10 µM.
T2 sequence (P15207 whole entry): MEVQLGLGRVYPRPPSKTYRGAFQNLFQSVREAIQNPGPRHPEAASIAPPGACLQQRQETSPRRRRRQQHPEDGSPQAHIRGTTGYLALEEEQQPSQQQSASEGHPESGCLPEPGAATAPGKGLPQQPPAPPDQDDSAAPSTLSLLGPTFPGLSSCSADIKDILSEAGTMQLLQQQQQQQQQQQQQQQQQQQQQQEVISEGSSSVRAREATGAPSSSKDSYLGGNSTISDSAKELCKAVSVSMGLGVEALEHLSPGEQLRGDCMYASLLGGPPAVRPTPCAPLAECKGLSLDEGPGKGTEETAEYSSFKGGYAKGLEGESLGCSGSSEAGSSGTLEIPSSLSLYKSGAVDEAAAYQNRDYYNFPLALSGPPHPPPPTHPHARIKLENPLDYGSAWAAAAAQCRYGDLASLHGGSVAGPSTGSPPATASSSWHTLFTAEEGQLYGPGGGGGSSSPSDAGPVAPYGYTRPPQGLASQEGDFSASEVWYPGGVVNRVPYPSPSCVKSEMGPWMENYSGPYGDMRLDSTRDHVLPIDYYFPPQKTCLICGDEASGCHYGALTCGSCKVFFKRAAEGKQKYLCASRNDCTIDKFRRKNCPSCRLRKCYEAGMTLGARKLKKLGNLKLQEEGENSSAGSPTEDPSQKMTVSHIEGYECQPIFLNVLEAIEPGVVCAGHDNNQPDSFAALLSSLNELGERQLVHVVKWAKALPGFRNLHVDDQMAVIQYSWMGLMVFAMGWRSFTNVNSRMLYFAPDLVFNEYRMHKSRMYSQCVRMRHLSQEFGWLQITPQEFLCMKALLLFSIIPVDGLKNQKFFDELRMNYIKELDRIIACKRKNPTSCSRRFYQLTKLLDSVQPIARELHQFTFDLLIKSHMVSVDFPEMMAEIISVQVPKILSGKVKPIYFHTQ

Chain of Matrix metalloproteinase-9 (P14780 whole entry): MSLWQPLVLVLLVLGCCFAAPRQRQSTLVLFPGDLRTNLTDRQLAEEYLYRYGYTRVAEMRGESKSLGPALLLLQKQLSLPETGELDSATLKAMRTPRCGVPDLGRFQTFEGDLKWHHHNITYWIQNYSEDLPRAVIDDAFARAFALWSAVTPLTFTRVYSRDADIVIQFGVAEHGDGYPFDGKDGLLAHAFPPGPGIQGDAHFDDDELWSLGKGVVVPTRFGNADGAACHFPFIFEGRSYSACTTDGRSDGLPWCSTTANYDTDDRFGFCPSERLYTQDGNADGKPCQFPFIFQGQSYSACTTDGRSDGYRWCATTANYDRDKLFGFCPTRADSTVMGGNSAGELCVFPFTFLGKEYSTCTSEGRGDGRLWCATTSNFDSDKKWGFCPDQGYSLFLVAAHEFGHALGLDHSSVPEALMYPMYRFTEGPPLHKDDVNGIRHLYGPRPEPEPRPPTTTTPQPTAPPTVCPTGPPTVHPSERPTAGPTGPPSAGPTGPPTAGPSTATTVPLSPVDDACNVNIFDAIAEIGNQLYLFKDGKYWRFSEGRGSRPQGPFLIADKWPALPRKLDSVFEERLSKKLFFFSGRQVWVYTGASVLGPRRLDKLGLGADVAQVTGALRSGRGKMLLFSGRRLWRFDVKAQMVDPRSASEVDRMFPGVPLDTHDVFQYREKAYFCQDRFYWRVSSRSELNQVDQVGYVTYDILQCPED
Chain of Mitogen-activated protein kinase 1 (P28482 whole entry): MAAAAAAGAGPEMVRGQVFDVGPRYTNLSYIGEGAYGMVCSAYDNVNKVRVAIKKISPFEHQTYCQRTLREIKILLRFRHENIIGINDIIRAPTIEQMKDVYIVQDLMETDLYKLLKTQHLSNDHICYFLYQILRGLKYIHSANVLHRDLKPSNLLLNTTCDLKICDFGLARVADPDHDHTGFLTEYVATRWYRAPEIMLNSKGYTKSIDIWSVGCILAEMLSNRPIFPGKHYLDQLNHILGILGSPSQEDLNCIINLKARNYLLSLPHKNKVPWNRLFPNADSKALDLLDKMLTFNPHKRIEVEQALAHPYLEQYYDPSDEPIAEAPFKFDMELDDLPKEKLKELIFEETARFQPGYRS

For `CNS(=O)(=O)Cc1ccc2[nH]cc(CCN(C)C)c2c1`, the half-inhibitory concentration (IC50) entry in experiment [1], in experiment [2] and in experiment [3] was “Not Active” each time.
For `CCCc1nn(C)c2c(=O)[nH]c(-c3cc(S(=O)(=O)N4CCN(C)CC4)ccc3OCC)nc12`, the IC50 result in experiment [1], in experiment [2] and in experiment [3] was “Not Active” throughout.
`COc1ccc(/C=C/C(=O)Nc2ccccc2C(=O)O)cc1OC`: the IC50 entry in experiment [1], in experiment [2], in experiment [3] and in experiment [4] was “Not Active” throughout.
Take `CCOC(N)=O`: the IC50 entry in experiment [1], in experiment [2] and in experiment [3] was “Not Active” each time.
As to `CC(=O)Nc1nnc(S(N)(=O)=O)s1` [ACETAZOLAMIDE], the IC50 result in experiment [1], in experiment [2] and in experiment [3] was “Not Active” throughout.
Consider `O=c1[nH]c2ccccc2n1CCCN1CCC(n2c(=O)[nH]c3cc(Cl)ccc32)CC1` [DOMPERIDONE], for which the half-maximal inhibitory concentration (IC50) entry in experiment [1], in experiment [2] and in experiment [3] was “Not Active” throughout.
As to `CC1=C(CC(=O)O)c2cc(F)ccc2/C1=C\c1ccc(S(C)(=O)=O)cc1` [EXISULIND], the half-inhibitory concentration (IC50) – broadly, the midpoint of a concentration-inhibition curve – in experiment [1] is “Not Active”; in experiment [2] (read-out: IC50), 13.8 µM; in experiment [3] it was “Not Active”; in experiment [4], “Not Active”.
`CC(C)OC(=O)C(C)(C)Oc1ccc(C(=O)c2ccc(Cl)cc2)cc1` [FENOFIBRATE]: the IC50 result in experiment [1], in experiment [2], in experiment [3] and in experiment [4] was “Not Active” each time.
Take `CN1C2CCCC1CC(NC(=O)c1nn(C)c3ccccc13)C2` (stereo not drawn) [GRANISETRON]: the IC50 entry in experiment [1], in experiment [2] and in experiment [3] was “Not Active” each time.
Consider `Nc1nc2c(c(=O)[nH]1)N(C=O)C(CNc1ccc(C(=O)N[C@@H](CCC(=O)O)C(=O)O)cc1)CN2` (stereo partly drawn) [LEUCOVORIN], for which the IC50 result in experiment [1], in experiment [3] and in experiment [4] was “Not Active” each time.
In the case of `C[C@@H](O)[C@H]1C(=O)N2C(C(=O)O)=C(S[C@@H]3CN[C@H](C(=O)N(C)C)C3)[C@H](C)[C@H]12` [MEROPENEM], the concentration for half-maximal inhibition (IC50) result in experiment [1], in experiment [2] and in experiment [3] was “Not Active” each time.
Turning to `CC[C@@H](CO)NC(=O)[C@@H]1C=C2c3cccc4c3c(cn4C)C[C@H]2N(C)C1` [METHYSERGIDE], the IC50 result in experiment [1], in experiment [2] and in experiment [3] was “Not Active” in each case.
In the case of `CCN(CC)CC#CCOC(=O)C(O)(c1ccccc1)C1CCCCC1` (stereo not drawn) [OXYBUTYNIN], the IC50 result in experiment [1], in experiment [2] and in experiment [3] was “Not Active” in each case.
Regarding `O=P(O)(O)C(O)(Cc1cccnc1)P(=O)(O)O` [RISEDRONIC ACID], the half-inhibitory concentration (IC50) entry in experiment [1], in experiment [2] and in experiment [3] was “Not Active” in each case.
As for `CN(CCOc1ccc(CC2SC(=O)NC2=O)cc1)c1ccccn1` (stereo not drawn) [ROSIGLITAZONE], the half-inhibitory concentration (IC50) result in experiment [1], in experiment [2] and in experiment [3] was “Not Active” throughout.
In the case of `C#CCN(C)[C@H](C)Cc1ccccc1` [SELEGILINE], the half-maximal inhibitory concentration (IC50) result in experiment [1], in experiment [2] and in experiment [3] was “Not Active” each time.
On to `CN[C@@H]1[C@H](O)[C@H](NC)[C@H]2O[C@@]3(O)C(=O)C[C@@H](C)O[C@H]3O[C@@H]2[C@H]1O` [SPECTINOMYCIN], for which the IC50 result in experiment [1], in experiment [2], in experiment [3] and in experiment [4] was “Not Active” throughout.
As for `Nc1ccc(S(=O)(=O)Nc2ncccn2)cc1` [SULFADIAZINE], the IC50 entry in experiment [1], in experiment [2] and in experiment [3] was “Not Active” in each case.
`COc1ncnc(NS(=O)(=O)c2ccc(N)cc2)c1OC` [SULFADOXINE]: the 50% inhibitory concentration (IC50) result in experiment [1], in experiment [2] and in experiment [3] was “Not Active” each time.
Consider `Nc1ccc(S(=O)(=O)Nc2nccs2)cc1` [SULFATHIAZOLE], for which the half-maximal inhibitory concentration (IC50) entry in experiment [1], in experiment [2] and in experiment [3] was “Not Active” each time.
For the molecule `CC(C)(C)NC[C@H](O)COc1nsnc1N1CCOCC1` [TIMOLOL], the IC50 entry in experiment [1], in experiment [2] and in experiment [3] was “Not Active” in each case.
Turning to `CCS(=O)(=O)CCn1c([N+](=O)[O-])cnc1C` [TINIDAZOLE], the half-inhibitory concentration (IC50) entry in experiment [1], in experiment [2] and in experiment [3] was “Not Active” in each case.
Turning to `C[C@@H]1C[C@H]2[C@@H]3CCC4=CC(=O)C=C[C@]4(C)C3=CC[C@]2(C)[C@H]1C(=O)CN1CCN(c2cc(N3CCCC3)nc(N3CCCC3)n2)CC1` [TIRILAZAD], the concentration for half-maximal inhibition (IC50) result in experiment [1], in experiment [2], in experiment [3] and in experiment [4] was “Not Active” in each case.
`NC[C@H]1O[C@H](O[C@H]2[C@H](O)[C@@H](O[C@H]3O[C@H](CO)[C@@H](O)[C@H](N)[C@H]3O)[C@H](N)C[C@@H]2N)[C@H](N)C[C@@H]1O` [TOBRAMYCIN]: the IC50 result in experiment [1], in experiment [2] and in experiment [3] was “Not Active” in each case.
Regarding `O=c1n(CCCN2CCN(c3cccc(Cl)c3)CC2)nc2ccccn12` [TRAZODONE], the IC50 result in experiment [1], in experiment [2] and in experiment [3] was “Not Active” throughout.
As to `O=C(O)C(Cl)(Cl)Cl` [TRICHLOROACETIC ACID], the half-inhibitory concentration (IC50) result in experiment [1], in experiment [2] and in experiment [3] was “Not Active” throughout.
As for `COc1ccc(CN2CCNCC2)c(OC)c1OC` [TRIMETAZIDINE], the 50% inhibitory concentration (IC50) result in experiment [1], in experiment [2] and in experiment [3] was “Not Active” each time.
In the case of `CC(=O)O[C@H]1C[C@@H]2CC[C@@H]3[C@H](CC[C@@]4(C)[C@H]3C[C@H]([N+]3(C)CCCCC3)[C@@H]4OC(C)=O)[C@@]2(C)C[C@@H]1N1CCCCC1.[Br-]` [VECURONIUM BROMIDE], the IC50 entry in experiment [1], in experiment [2] and in experiment [3] was “Not Active” each time.
Take `Cc1cn([C@H]2C[C@H](N=[N+]=[N-])[C@@H](CO)O2)c(=O)[nH]c1=O` [ZIDOVUDINE]: the 50% inhibitory concentration (IC50) result in experiment [1], in experiment [2] and in experiment [3] was “Not Active” in each case.
In the case of STANNOUS FLUORIDE, the half-inhibitory concentration (IC50) entry in experiment [1], in experiment [2], in experiment [3] and in experiment [4] was “Not Active” throughout. Further, the Ki entry in experiment [1], in experiment [2], in experiment [3] and in experiment [4] was “Not Active” each time.
Regarding THIMEROSAL, the 50% inhibitory concentration (IC50) result in experiment [1], in experiment [2], in experiment [3] and in experiment [4] was “Not Active” in each case. In addition, the Ki result in experiment [1], in experiment [2], in experiment [3] and in experiment [4] was “Not Active” in each case.

(Values after ChEMBL document CHEMBL1909046, “DrugMatrix in vitro pharmacology data”.)
